Consider 22 compounds from patent US9611275B2 (priority 2012, dated 2017).

The target in one data set is human O-GlcNAcase (Homo sapiens (Human), UniProt O60502). The data set can be described thus: biochemical. The following applies: for Ki: read-out: OGA KI. Format: biochemical.
In data set [1] the target is O-GlcNAcase in rat PC-12 cells (Rattus norvegicus (Rat), UniProt Q8VIJ5). Kind of data set: cell-based.
Text: Assay for Determination of Cellular Activity for Compounds that Inhibit O-GlcNAcase Activity
Inhibition of O-GlcNAcase, which removes O-GlcNAc from cellular proteins, results in an increase in the level of O-GlcNAcylated protein in cells. An increase in O-GlcNAcylated protein can be measured by an antibody, such as RL-2, that binds to O-GlcNAcylated protein. The amount of O-GlcNAcylated protein:RL2 antibody interaction can be measured by enzyme linked immunosorbant assay (ELISA) procedures.
A variety of tissue culture cell lines, expressing endogenous levels of O-GlcNAcase, can be utilized; examples include rat PC-12, and human U-87, or SK-N-SH cells. In this assay, rat PC-12 cells were plated in 96-well plates with approximately 10,000 cells/well. Compounds to be tested were dissolved in DMSO, either 2 or 10 mM stock solution, and then diluted with DMSO and water in a two-step process using a Tecan workstation. […] To prepare a cell lysate, the media from compound treated cells was removed, the cells were washed once with phosphate buffered saline (PBS) and then lysed for 5 minutes at room temperature in 50 μL of Phosphosafe reagent (Novagen Inc, Madison, Wis.) with protease inhibitors and PMSF. The cell lysate was collected and transferred to a new plate, which was then either coated to assay plates directly or frozen −80° C. until used in the ELISA procedure. If desired, the total protein concentration of samples is determined using 20 μL of the sample using the BCA method.
The plate was sealed and incubated at 37° C. for 2 hr with gentle shaking. The wells were then washed 3-times with 300 μl/well wash buffer. […] The plate was incubated for 60 min at 37° C. with gentle shaking. Each well was then washed 3-times with 300 μl/well wash buffer. The detection reagent was added, 100 μL/well of Amplex Ultra RED reagent (prepared by adding 30 μL of 10 mM Amplex Ultra Red stock solution to 10 ml PBS with 18 μL 3% hydrogen peroxide, H2O2). The detection reaction was incubated for 15 minutes at room temperature and then read with excitation at 530 nm and emission at 590 nm.
Data set [2] in a line: Assay for determination of apparent permeability (Papp), bi-directional transport. The following applies: pig, LLC-PK1.
Where [3] appears, read: rat PC-12 cells, 24 hours treatment, increase in O-GlcNAcylated protein, read-out: Cell based ELISA EC50.
[4] abbreviates: purified human O-GlcNAcase 0.7 nM, pH 7.0, room temperature, Cheng-Prusoff.

Where two headings read alike, the source gives them in different places.

O-GlcNAcase in rat PC-12 cells, sequence (Q8VIJ5 whole entry): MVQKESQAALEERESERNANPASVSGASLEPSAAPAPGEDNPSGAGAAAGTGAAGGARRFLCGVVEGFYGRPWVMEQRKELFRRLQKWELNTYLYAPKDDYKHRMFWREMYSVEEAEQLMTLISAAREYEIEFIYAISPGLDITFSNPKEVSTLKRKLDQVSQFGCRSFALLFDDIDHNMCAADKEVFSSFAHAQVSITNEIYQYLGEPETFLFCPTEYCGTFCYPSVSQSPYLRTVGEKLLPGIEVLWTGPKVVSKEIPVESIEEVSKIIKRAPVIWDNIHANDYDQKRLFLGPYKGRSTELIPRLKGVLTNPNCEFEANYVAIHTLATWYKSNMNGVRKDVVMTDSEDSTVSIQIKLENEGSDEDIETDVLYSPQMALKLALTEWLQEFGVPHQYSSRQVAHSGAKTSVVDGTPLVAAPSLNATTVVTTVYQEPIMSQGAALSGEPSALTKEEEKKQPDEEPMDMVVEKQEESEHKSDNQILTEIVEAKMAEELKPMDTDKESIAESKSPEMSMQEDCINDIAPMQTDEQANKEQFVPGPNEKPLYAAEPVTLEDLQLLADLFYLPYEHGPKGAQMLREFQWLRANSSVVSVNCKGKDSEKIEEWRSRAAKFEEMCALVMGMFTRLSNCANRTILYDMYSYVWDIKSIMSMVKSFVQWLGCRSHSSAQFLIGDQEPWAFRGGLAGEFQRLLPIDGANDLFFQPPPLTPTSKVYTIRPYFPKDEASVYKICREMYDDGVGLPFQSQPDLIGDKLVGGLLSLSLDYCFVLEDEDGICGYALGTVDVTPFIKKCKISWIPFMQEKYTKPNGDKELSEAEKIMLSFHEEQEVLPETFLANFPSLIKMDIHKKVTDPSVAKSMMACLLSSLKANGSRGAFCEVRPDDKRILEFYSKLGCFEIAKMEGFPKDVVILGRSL
human O-GlcNAcase, sequence (O60502 whole entry): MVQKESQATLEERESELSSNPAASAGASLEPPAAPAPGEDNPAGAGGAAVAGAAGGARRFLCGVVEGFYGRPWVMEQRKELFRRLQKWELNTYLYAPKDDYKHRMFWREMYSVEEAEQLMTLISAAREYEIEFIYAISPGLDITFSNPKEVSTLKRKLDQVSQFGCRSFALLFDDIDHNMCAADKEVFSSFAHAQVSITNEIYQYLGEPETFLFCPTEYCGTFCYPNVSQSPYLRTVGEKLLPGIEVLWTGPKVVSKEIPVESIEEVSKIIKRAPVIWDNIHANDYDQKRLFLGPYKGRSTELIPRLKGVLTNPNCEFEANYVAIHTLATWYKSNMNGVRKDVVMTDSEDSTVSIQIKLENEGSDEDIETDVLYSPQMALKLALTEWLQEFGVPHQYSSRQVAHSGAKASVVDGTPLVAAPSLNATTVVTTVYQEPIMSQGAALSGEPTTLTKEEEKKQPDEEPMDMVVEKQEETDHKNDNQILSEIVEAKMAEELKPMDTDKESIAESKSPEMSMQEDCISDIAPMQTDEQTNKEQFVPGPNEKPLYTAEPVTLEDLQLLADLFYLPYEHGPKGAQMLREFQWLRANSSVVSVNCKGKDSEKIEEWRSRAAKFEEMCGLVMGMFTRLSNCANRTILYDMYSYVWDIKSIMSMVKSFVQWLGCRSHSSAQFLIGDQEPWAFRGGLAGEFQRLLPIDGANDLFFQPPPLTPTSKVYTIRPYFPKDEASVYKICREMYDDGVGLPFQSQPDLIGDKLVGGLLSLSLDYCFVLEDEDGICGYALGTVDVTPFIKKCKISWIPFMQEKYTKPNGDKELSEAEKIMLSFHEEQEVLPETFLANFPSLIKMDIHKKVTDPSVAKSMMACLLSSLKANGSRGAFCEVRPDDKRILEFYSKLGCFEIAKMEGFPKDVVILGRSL

For the compound `CN(C)C1=N[C@@H]2[C@@H](O)[C@H](O)[C@@H](C(OCc3cccc(F)c3)C(F)(F)F)O[C@@H]2S1` (stereo in doubt) [Example 64, (3aR,5S,6S,7R,7aR)-2-(dimethylamino)-5-((S)-2,2,2-trifluoro-1-(3-fluorobenzyloxy)ethyl)-5,6,7,7a-tetrahydro-3aH-pyrano[3,2-d]thiazole-6,7-diol], the Ki – broadly, the equilibrium dissociation constant of an inhibitor or competing ligand from its target – on human O-GlcNAcase amounted to 1.32 nM. Further, the EC50 – broadly, the concentration that produces a half-maximal response – in data set [1] (setting [3]) came to 8.43 nM. Also, the Papp (commonly a coefficient for how fast a substance crosses the barrier) at 3 h, 1 μM in data set [2] worked out at 29.9 ×10⁻⁶ cm/s.

Consider `CNC1=N[C@@H]2[C@H]3OC(C)(C)O[C@@H]3[C@@H](C(OCc3ccc(F)cc3)C(F)(F)F)O[C@@H]2S1` (stereo in doubt) [Example 117, (1R,2R,6R,8S,9S)—N,11,11-trimethyl-8-[(1S)-2,2,2-trifluoro-1-[(4-fluorophenyl)methoxy]ethyl]-7,10,12-trioxa-5-thia-3-azatricyclo[7.3.0.0[2,6]]dodec-3-en-4-amine], for which the “KI values for inhibition of O-GlcNAcase” value at human O-GlcNAcase (units given within the value) was “does not possess inhibitory activity in the aforementioned range”.

With `CN(C)C1=N[C@@H]2[C@@H](O)[C@H](O)[C@@H]([C@@H](N(C)C)C(F)(F)F)O[C@@H]2S1` [Example 17, (3aR,5R,6S,7R,7aR)-2-(dimethylamino)-5-((R)-1-(dimethylamino)-2,2,2-trifluoroethyl)-5,6,7,7a-tetrahydro-3aH-pyrano[3,2-d]thiazole-6,7-diol], the Ki at human O-GlcNAcase (setting [4]) is 41.9 nM. Moreover, the Papp at 3 h, 1 μM in data set [2] came out at 31.2 ×10⁻⁶ cm/s.

Regarding `CN(C)C1=N[C@@H]2[C@@H](O)[C@H](O)[C@@H]([C@@H](OCCCCCF)C(F)(F)F)O[C@@H]2S1` [Example 31, (3aR,5S,6S,7R,7aR)-2-(dimethylamino)-5-((R)-2,2,2-trifluoro-1-(5-fluoropentyloxy)ethyl)-5,6,7,7a-tetrahydro-3aH-pyrano[3,2-d]thiazole-6,7-diol], the Ki on human O-GlcNAcase (setting [4]) came to 4.4 nM. For the same compound, the EC50 in data set [1] (setting [3]) is 22.3 nM. In data set [2], the Papp at 3 h, 1 μM came out at 31.3 ×10⁻⁶ cm/s.

Consider `CN(C)C1=N[C@@H]2[C@@H](O)[C@H](O)[C@@H]([C@@H](OCCC3CCCCC3)C(F)(F)F)O[C@@H]2S1` [Example 34, (3aR,5S,6S,7R,7aR)-5-((R)-1-(2-cyclohexylethoxy)-2,2,2-trifluoroethyl)-2-(dimethylamino)-5,6,7,7a-tetrahydro-3aH-pyrano[3,2-d]thiazole-6,7-diol], for which the Ki on human O-GlcNAcase (setting [4]) came out at 2.27 nM. For the same compound, the EC50 in data set [1] (setting [3]) came out at 46.4 nM. The Papp at 3 h, 1 μM in data set [2] came out at 33.3 ×10⁻⁶ cm/s.

In the case of `CN(C)C1=N[C@@H]2[C@@H](O)[C@H](O)[C@@H]([C@@H](OCc3ccccc3)C(F)(F)F)O[C@@H]2S1` [Example 39, (3aR,5S,6S,7R,7aR)-5-((R)-1-(benzyloxy)-2,2,2-trifluoroethyl)-2-(dimethylamino)-5,6,7,7a-tetrahydro-3aH-pyrano[3,2-d]thiazole-6,7-diol], on human O-GlcNAcase (setting [4]), the Ki worked out at 2.43 nM. Further, the EC50 in data set [1] (setting [3]) amounted to 36.2 nM.

As to `CN(C)C1=N[C@@H]2[C@@H](O)[C@H](O)[C@@H]([C@@H](OCc3cccnc3)C(F)(F)F)O[C@@H]2S1` [Example 42, (3aR,5S,6S,7R,7aR)-2-(dimethylamino)-5-((R)-2,2,2-trifluoro-1-(pyridin-3-ylmethoxy)ethyl)-5,6,7,7a-tetrahydro-3aH-pyrano[3,2-d]thiazole-6,7-diol], the Ki at human O-GlcNAcase (setting [4]) was determined as 2.36 nM. The EC50 in data set [1] (setting [3]) was determined as 120 nM. In addition, the Papp at 3 h, 1 μM in data set [2] was found to be 15.2 ×10⁻⁶ cm/s.

For the compound `CN(C)C1=N[C@@H]2[C@@H](O)[C@H](O)[C@@H]([C@@H](OCc3ccc(-c4ccccc4)cc3)C(F)(F)F)O[C@@H]2S1` [Example 44, (3aR,5S,6S,7R,7aR)-5-((R)-1-(biphenyl-4-ylmethoxy)-2,2,2-trifluoroethyl)-2-(dimethylamino)-5,6,7,7a-tetrahydro-3aH-pyrano[3,2-d]thiazole-6,7-diol], the Ki at human O-GlcNAcase turned out to be 3.05 nM.

`CN(C)C1=N[C@@H]2[C@@H](O)[C@H](O)[C@@H]([C@@H](OCc3ccc(Cc4ccccc4)cc3)C(F)(F)F)O[C@@H]2S1` [Example 45, (3aR,5S,6S,7R,7aR)-5-((R)-1-(4-benzylbenzyloxy)-2,2,2-trifluoroethyl)-2-(dimethylamino)-5,6,7,7a-tetrahydro-3aH-pyrano[3,2-d]thiazole-6,7-diol]: the Ki at human O-GlcNAcase was 1.97 nM. In addition, in data set [1], it took 128 nM to reach a half-maximal effect (EC50).

Regarding `COc1ccc(CO[C@H]([C@H]2O[C@@H]3SC(N(C)C)=N[C@@H]3[C@@H](O)[C@@H]2O)C(F)(F)F)cc1` [Example 52, (3aR,5S,6S,7R,7aR)-2-(dimethylamino)-5-((R)-2,2,2-trifluoro-1-(4-methoxybenzyloxy)ethyl)-5,6,7,7a-tetrahydro-3aH-pyrano[3,2-d]thiazole-6,7-diol], the inhibition constant Ki on human O-GlcNAcase (setting [4]) came to 1.38 nM. Further, the EC50 in data set [1] (setting [3]) amounted to 21.3 nM. Moreover, the Papp at 3 h, 1 μM in data set [2] is 30.5 ×10⁻⁶ cm/s.

As for `CN(C)C1=N[C@@H]2[C@@H](O)[C@H](O)[C@@H]([C@@H](OCc3ccc(OCCF)cc3)C(F)(F)F)O[C@@H]2S1` [Example 55, (3aR,5S,6S,7R,7aR)-2-(dimethylamino)-5-((R)-2,2,2-trifluoro-1-(4-(2-fluoroethoxy)benzyloxy)ethyl)-5,6,7,7a-tetrahydro-3aH-pyrano[3,2-d]thiazole-6,7-diol], the Ki on human O-GlcNAcase is 0.65 nM. Also, the concentration giving a half-maximal response (EC50) in data set [1] was found to be 79.5 nM. Also, the Papp at 3 h, 1 μM in data set [2] stood at 27.1 ×10⁻⁶ cm/s.

Regarding `CN(C)C1=N[C@@H]2[C@@H](O)[C@H](O)[C@@H]([C@@H](OCc3ccc(Oc4ccccc4)cc3)C(F)(F)F)O[C@@H]2S1` [Example 57, (3aR,5S,6S,7R,7aR)-2-(dimethylamino)-5-((R)-2,2,2-trifluoro-1-(4-phenoxybenzyloxy)ethyl)-5,6,7,7a-tetrahydro-3aH-pyrano[3,2-d]thiazole-6,7-diol], on human O-GlcNAcase, the Ki turned out to be 1.11 nM. It took 62.1 nM to reach a half-maximal effect in data set [1] (EC50). Moreover, the Papp at 3 h, 1 μM in data set [2] came to 16.4 ×10⁻⁶ cm/s.

Turning to `COc1ccc(CO[C@H]([C@H]2O[C@@H]3SC(N(C)C)=N[C@@H]3[C@@H](O)[C@@H]2O)C(F)(F)F)cc1C(F)(F)F` [Example 58, (3aR,5S,6S,7R,7aR)-2-(dimethylamino)-5-((R)-2,2,2-trifluoro-1-(4-methoxy-3-(trifluoromethyl)benzyloxy)ethyl)-5,6,7,7a-tetrahydro-3aH-pyrano[3,2-d]thiazole-6,7-diol], the Ki on human O-GlcNAcase (setting [4]) stood at 0.84 nM. For the same compound, the EC50 in data set [1] (setting [3]) is 76.9 nM. Moreover, in data set [2], the Papp at 3 h, 1 μM was 26.2 ×10⁻⁶ cm/s.

For `CN(C)C1=N[C@@H]2[C@@H](O)[C@H](O)[C@@H]([C@@H](OCc3ccccc3F)C(F)(F)F)O[C@@H]2S1` [Example 61, (3aR,5S,6S,7R,7aR)-2-(dimethylamino)-5-((R)-2,2,2-trifluoro-1-(2-fluorobenzyloxy)ethyl)-5,6,7,7a-tetrahydro-3aH-pyrano[3,2-d]thiazole-6,7-diol], the Ki on human O-GlcNAcase was 1.98 nM. This compound also gave an EC50 in data set [1] of 7.73 nM. Moreover, in data set [2], the Papp at 3 h, 1 μM was found to be 29 ×10⁻⁶ cm/s.

On to `CN(C)C1=N[C@@H]2[C@@H](O)[C@H](O)[C@@H]([C@@H](OCc3ccc(F)cc3)C(F)(F)F)O[C@@H]2S1` [Example 65], for which the Ki at human O-GlcNAcase (setting [4]) came out at 1.02 nM. In addition, in data set [1] (setting [3]), the EC50 is 27.7 nM. In addition, the Papp at 3 h, 1 μM in data set [2] was 28.8 ×10⁻⁶ cm/s.

Consider `CN(C)C1=N[C@@H]2[C@@H](O)[C@H](O)[C@@H]([C@@](CCc3ccccc3)(OCc3ccccc3)C(F)(F)F)O[C@@H]2S1` [Example 76, (3aR,5S,6S,7R,7aR)-5-((R)-2-(benzyloxy)-1,1,1-trifluoro-4-phenylbutan-2-yl)-2-(dimethylamino)-5,6,7,7a-tetrahydro-3aH-pyrano[3,2-d]thiazole-6,7-diol], for which the Ki on human O-GlcNAcase (setting [4]) stood at 726 nM.

With `CNC1=N[C@@H]2[C@@H](O)[C@H](O)[C@@H]([C@@H](OCc3ccc(C)cc3)C(F)(F)F)O[C@@H]2S1` [Example 85, (3aR,5S,6S,7R,7aR)-2-(methylamino)-5-((R)-2,2,2-trifluoro-1-(4-mcthylbenzyloxy)ethyl)-5,6,7,7a-tetrahydro-3aH-pyrano[3,2-d]thiazole-6,7-diol], at human O-GlcNAcase (setting [4]), the Ki worked out at 3.11 nM. For the same compound, the Papp at 3 h, 1 μM in data set [2] was determined as 26.3 ×10⁻⁶ cm/s.

Consider `CNC1=N[C@@H]2[C@@H](O)[C@H](O)[C@@H]([C@@H](OCc3ccc(CCF)cc3)C(F)(F)F)O[C@@H]2S1` [Example 87, (3aR,5S,6S,7R,7aR)-2-(methylamino)-5-((R)-2,2,2-trifluoro-1-(4-(2-fluoroethyl)benzyloxy)ethyl)-5,6,7,7a-tetrahydro-3aH-pyrano[3,2-d]thiazole-6,7-diol], for which, on human O-GlcNAcase, the Ki was determined as 0.71 nM. In addition, the EC50 in data set [1] amounted to 46.4 nM.

For the compound `CCNC1=N[C@@H]2[C@@H](O)[C@H](O)[C@@H]([C@@H](OCc3ccc(OC)cc3)C(F)(F)F)O[C@@H]2S1` [Example 96, (3aR,5S,6S,7R,7aR)-2-(ethylamino)-5-((R)-2,2,2-trifluoro-1-(4-methoxybenzyloxy)ethyl)-5,6,7,7a-tetrahydro-3aH-pyrano[3,2-d]thiazole-6,7-diol], the Ki on human O-GlcNAcase (setting [4]) stood at 12.5 nM. In addition, the Papp at 3 h, 1 μM in data set [2] turned out to be 30.1 ×10⁻⁶ cm/s.

As for `CN(C)C1=N[C@@H]2[C@@H](O)[C@H](O)[C@@H]([C@@H](Oc3ccccc3)C(F)(F)F)O[C@@H]2S1` [Example 107, (3aR,5S,6S,7R,7aR)-2-(dimethylamino)-5-((R)-2,2,2-trifluoro-1-phenoxyethyl)-5,6,7,7a-tetrahydro-3aH-pyrano[3,2-d]thiazole-6,7-diol], the Papp at 3 h, 1 μM in data set [2] was 31.3 ×10⁻⁶ cm/s.

On to `COc1ccc(CO[C@@H](C)[C@H]2O[C@@H]3SC(N(C)C)=N[C@@H]3[C@@H](O)[C@@H]2O)cc1` [Example 109, (3aR,5S,6S,7R,7aR)-2-(dimethylamino)-5-((S)-1-(4-methoxybenzyloxy)ethyl)-5,6,7,7a-tetrahydro-3aH-pyrano[3,2-d]thiazole-6,7-diol], for which the Papp at 3 h, 1 μM in data set [2] was 26.3 ×10⁻⁶ cm/s.

For the compound `CNC1=N[C@@H]2[C@@H](O)[C@H](O)[C@@H]([C@](C)(O)C(F)(F)F)O[C@@H]2S1` [Example 158, (3aR,5S,6S,7R,7aR)-2-(methylamino)-5-((S)-1,1,1-trifluoro-2-hydroxypropan-2-yl)-5,6,7,7a-tetrahydro-3aH-pyrano[3,2-d]thiazole-6,7-diol], the Ki on human O-GlcNAcase (comparative compounds described in PCT/US11/059668) came to 1.29 nM. For the same compound, the Papp at 3 h, 1 μM in data set [2] was 2.9 ×10⁻⁶ cm/s.
